In patent publication US20240174690A1, “ANNULATED 2-AMINO-3-CYANO THIOPHENES AND DERIVATIVES FOR THE TREATMENT OF CANCER” (BOEHRINGER INGELHEIM INTERNATIONAL GMBH, priority 2021, published 2024):
Read-outs that look alike come from different tables or passages of the source.

Columns and labels:
[1] = test system: AsPC-1 cells; test: AsPC-1 CTG proliferation assay (120 h) (pancreatic cancer, G12D); type: cell-based; settings: Homo sapiens, ASPC1
Procedure, shortened: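 CellTiter-Glo luminescence, normalised to DMSO wells, measured viability after 120 h compound exposure. Cells were AsPC-1 pancreatic cancer (G12D) plated at 2000 per well in RPMI/10% FCS the day before dosing. IC50 derived by four-parameter regression.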

[2] = test system: GP2D cells; test: GP2D proliferation assay (120 h) (colorectal cancer, G12D); type: cell-based
Procedure, shortened: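 500 cells/well in DMEM + GlutaMAX + 10% FCS, exposed to a logarithmic compound dose series (DMSO-normalized) for 120 h. Viability read by CellTiter-Glo luminescence as percent of DMSO control, with an untreated T0 read at dosing; IC50 from four-parameter non-linear regression.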

[3] = test system: MKN1 cells; test: MKN1 CTG proliferation assay (120 h) (gastric cancer, wt amplified); type: cell-based; settings: Homo sapiens
Procedure, shortened: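 MKN1 gastric cancer cells (200–500 per well, RPMI + 10% FCS) given a logarithmic compound dose series and incubated 120 h. Viability by CellTiter-Glo luminescence as percent of DMSO controls. IC50 by four-parameter non-linear regression.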

[4] = target: CYP3A4 (Homo sapiens (Human), UniProt P08684); test: Mechanism based inhibition of CYP3A4 assay (MBI 3A4); type: in vitro ADME; settings: hydroxy-midazolam formation after 30 min vs 0 min preincubation, 25 uM, human liver microsomes
Procedure, shortened: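 Readout is hydroxy-midazolam formed after 30 min preincubation relative to 0 min, measured by LC/MS-MS after acetonitrile quench. Following preincubation, samples diluted 1:10 and incubated 15 min with midazolam substrate.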

[5] = MKN-1, assay 2, CTG 120 h, read-out: MKN1 (assay 2) IC50
[6] = MKN-1, assay 1, CTG 120 h, read-out: MKN1 (assay 1) IC50
[7] = MKN-1, assay 3, CTG 120 h, read-out: MKN1 (assay 3) IC50

Sequence of CYP3A4 (P08684 whole entry): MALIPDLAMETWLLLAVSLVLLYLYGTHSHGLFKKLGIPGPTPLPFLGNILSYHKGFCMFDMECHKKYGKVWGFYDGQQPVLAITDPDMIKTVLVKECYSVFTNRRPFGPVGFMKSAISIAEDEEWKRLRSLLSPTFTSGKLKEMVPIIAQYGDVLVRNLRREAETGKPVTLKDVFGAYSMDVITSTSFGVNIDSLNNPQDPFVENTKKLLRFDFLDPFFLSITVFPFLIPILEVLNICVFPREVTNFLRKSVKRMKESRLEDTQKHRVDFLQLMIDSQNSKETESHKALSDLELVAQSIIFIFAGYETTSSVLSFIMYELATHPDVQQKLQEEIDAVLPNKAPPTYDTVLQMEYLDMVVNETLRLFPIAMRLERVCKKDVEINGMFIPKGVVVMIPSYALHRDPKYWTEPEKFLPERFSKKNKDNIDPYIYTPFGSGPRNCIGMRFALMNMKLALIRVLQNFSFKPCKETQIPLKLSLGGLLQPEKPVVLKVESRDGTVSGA

| IC50 [1] [nM] | IC50 [2] [nM] | IC50 [3, 5] [nM] | MBI 3A4 [4] [%] | IC50 [3, 6] [nM] | IC50 [3, 7] [nM] | Compound |
| --- | --- | --- | --- | --- | --- | --- |
| 27 | 1 | 32 | 49 |  |  | C[C@H](Oc1cc(N2CCNC3(COC3)C2)nc(-c2noc3c2CCC[C@@]32CCCc3sc(N)c(C#N)c32)n1)[C@@H]1C[C@@H](F)CN1C [II-150] |
| 305 | 31 | 26 | 49 | 25 | 9 | C[C@H](Oc1cc(-n2ccc(C(=O)N[C@@H]3CCOC3)n2)nc(-c2noc3c2CCC[C@@]32CCCc3sc(N)c(C#N)c32)n1)[C@@H]1CCCN1C [II-192] |
| 257 | 8 | 467 | 42 |  |  | C[C@H](Oc1cc(N2CCN(C)C3(CC3)C2)nc(-c2noc3c2CCC[C@@]32CCCc3sc(N)c(C#N)c32)n1)[C@@H]1C[C@@H](F)CN1C [II-149] |
| 922 | 30 |  | 84 |  | 411 | C[C@H](Oc1cc(N2CCN[C@@H](C)C2)nc(-c2noc3c2CCC[C@@]32CCCc3sc(N)c(C#N)c32)n1)[C@@H]1CCCN1C [II-162] |
| 1080 | 233 |  | 67 | 216 | 297 | C[C@H](Oc1cc(-n2ccc(-c3cnccn3)n2)nc(-c2noc3c2CCC[C@@]32CCCc3sc(N)c(C#N)c32)n1)[C@@H]1CCCN1C [II-130] |
| 38 | 2 | 313 |  |  | 260 | CO[C@H]1CCN(C)[C@@H]1[C@H](C)Oc1cc(N2CCN(C)C3(CC3)C2)nc(-c2noc3c2CCC[C@@]32CCCc3sc(N)c(C#N)c32)n1 [II-186] |
